Measurements published in patent publication US11234941B2, “Oil-free carotenoid composition” (GAT Therapeutics S.L., priority 2017, dated 2022).

Legend:
[1] = biological target: T1, glucocorticoid receptor (GR) (Homo sapiens, UniProt P04150); assay: SelectScreen cell-based GR antagonist assay (UAS-bla HEK 293T, beta-lactamase reporter, dexamethasone as agonist)
T1 construct: the UAS-driven beta-lactamase is the reporter
T1 sequence (P04150 524-777 limits assumed): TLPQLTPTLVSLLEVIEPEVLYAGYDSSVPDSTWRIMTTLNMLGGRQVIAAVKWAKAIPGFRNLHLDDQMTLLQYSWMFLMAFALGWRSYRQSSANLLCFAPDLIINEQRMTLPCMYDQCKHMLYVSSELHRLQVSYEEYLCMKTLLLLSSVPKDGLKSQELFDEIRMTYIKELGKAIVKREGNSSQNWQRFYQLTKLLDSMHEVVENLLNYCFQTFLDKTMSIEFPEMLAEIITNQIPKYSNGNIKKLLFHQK
Procedure: An antagonist assay for GR was performed by SelectScreen® Cell-Based Nuclear Receptor Profiling Service of Life Technologies. […] Detection method is based on a beta-lactamase reporter gene (bla) combined with a FRET-enabled substrate. The data obtained in these assays was modelled to a sigmoidal dose response curve.

[2] = Observation of precipitation and aggregates during nanoparticle preparation; conditions: after addition of the xanthophyll to the albumin solution
Procedure: To prepare bovine serum albumin (BSA)—astaxanthin nanoparticles, albumin (20 mg, 5 mg or 1 mg depending on the protein:carotenoid ratio) was dissolved in 1 mL deionized water and 1 mg of astaxanthin was dissolved in 0.25 mL THF. The astaxanthin solution was slowly added to the BSA solution under stirring and nitrogen atmosphere. When the addition of carotene was completed the solution was stirred at room temperature for 10 additional minutes. The organic solvent (THF) in the mixed solution was slowly removed by speed vacuum at 25° C. Distillation was completed when the total solution volume was reduced by ⅔. Finally, the nanoparticle solutions were filtered through a 0.22 μm PES membrane filter and immediately stored in the dark at 4° C.

[3] = at 10 μM, against dexamethasone

Row | Molecule | GR inhibition [1, 3] | antagonist effect on GR ([1]; against dexamethasone) | further results
1 | CC1=C[C@H](O)CC(C)(C)[C@H]1/C=C/C(C)=C/C=C/C(C)=C/C=C/C=C(C)/C=C/C=C(C)/C=C/C1=C(C)C[C@@H](O)CC1(C)C [lutein] | – | – | inhibition at 10 µM ([1]; HEK-293T, at 10 μM, against dexamethasone): 80%
2 | fucoxanthin | 50% | – | concentration from which it acts as GR antagonist ([1]; against the agonist dexamethasone): 30 nM; formation of aggregates with poor solubility during nanoparticle preparation [2]: not observed
3 | CC1=C(/C=C/C(C)=C/C=C/C(C)=C/C=C/C=C(C)/C=C/C=C(C)/C=C/C2=C(C)C(=O)[C@@H](O)CC2(C)C)C(C)(C)C[C@H](O)C1=O [astaxanthin, reference compound] | – | neither compound exercised an antagonist effect on GR | –
4 | CC1=C(/C=C/C(C)=C/C=C/C(C)=C/C=C/C=C(C)/C=C/C=C(C)/C=C/C2=C(C)CCCC2(C)C)C(C)(C)CCC1 [beta-carotene, reference compound] | – | neither compound exercised an antagonist effect on GR | –

More lines, main results first:

Row | GR inhibition [1, 3] | Molecule | antagonist effect on GR ([1]; against dexamethasone) | further results
5 | above 85% | CC(=C/C=C/C(C)=C/C=C/C=C(C)/C=C/C=C(\C)C=C=C1C(C)(C)C[C@H](O)C[C@@]1(C)O)/C=C/[C@@]12O[C@]1(C)C[C@@H](O)CC2(C)C [Neoxanthin, neoxanthin] | – | –
6 | 80% | CC(=O)O[C@H]1CC(C)(C)C(=C=C/C(C)=C/C=C/C(C)=C/C=C/C=C(C)/C=C/C=C(\C)C(=O)/C=C2/C(C)(C)C[C@H](O)C[C@@]2(C)O)[C@](C)(O)C1 [isofucoxanthin] | – | –
